Data reported in paper PMC5515969, “Effects of 31 FDA approved small-molecule kinase inhibitors on isolated rat liver mitochondria” (Archives of Toxicology, 2016).
Like-named read-outs stand apart in the source and are kept apart here. Marks after values point to notes of the source that are not given here.

Tests used:
[1] = tested on: isolated rat liver mitochondria; assay: Mitochondrial oxygen consumption (glutamate/malate or succinate driven, state 4 and state 3); format: biochemical; settings: for Glutamate/malate driven respiration State 3 / Glutamate/malate driven respiration State 4 / Succinate-driven respiration State 3 / Succinate-driven respiration State 4: oxygen consumption, DMSO-treated = 1; for State 3 respiration driven by succinate at 10XCmax: key: 0 indicates that the drug had no effects (negative); for State 3 respiration driven by succinate at 1XCmax: key: 0 indicates that the drug had no effects (negative)
In short: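 Oxygen uptake on glutamate/malate or on succinate defined state 4; ADP added 3 min later gave state 3. Mitochondria isolated from rat liver by differential centrifugation, adjusted to 1 mg/ml and pretreated 5 min with inhibitor (0.1% DMSO final). Values relative to DMSO control, set to 1.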

RCC I = RCC I activity in submitochondrial particles; format: biochemical, rat; design: key to RCC I at 10XCmax / RCC I at 100XCmax / RCC I at 50XCmax / RCC I at 30XCmax / RCC I at 20XCmax: activity relative to DMSO-treated controls (control set as 1 = 100%); settings: 10XCmax; DMSO treated samples set as 1
In short: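 First, submitochondrial particles (1 mg/ml) are incubated with inhibitor for 15 min. Next, complex activities are followed spectrophotometrically, with RCC I taken as the difference between buffers lacking and containing rotenone. Finally, activities are expressed relative to DMSO controls set at 1.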

RCC II = molecular target: T1, RCC II (Rattus norvegicus, UniProt P21913+Q641Z9+Q6PCT8+Q920L2); assay: RCC II activity in submitochondrial particles; format: biochemical; design: key: activity relative to DMSO-treated controls (control set as 1 = 100%); settings: DMSO treated samples set as 1
T1 construct: Submitochondrial particles were prepared by subjecting the intact mitochondria to three successive freeze–thaw cycles; from tissue; host or cells: rat liver mitochondria, used as submitochondrial particles
T1 sequence (Q920L2 35-656): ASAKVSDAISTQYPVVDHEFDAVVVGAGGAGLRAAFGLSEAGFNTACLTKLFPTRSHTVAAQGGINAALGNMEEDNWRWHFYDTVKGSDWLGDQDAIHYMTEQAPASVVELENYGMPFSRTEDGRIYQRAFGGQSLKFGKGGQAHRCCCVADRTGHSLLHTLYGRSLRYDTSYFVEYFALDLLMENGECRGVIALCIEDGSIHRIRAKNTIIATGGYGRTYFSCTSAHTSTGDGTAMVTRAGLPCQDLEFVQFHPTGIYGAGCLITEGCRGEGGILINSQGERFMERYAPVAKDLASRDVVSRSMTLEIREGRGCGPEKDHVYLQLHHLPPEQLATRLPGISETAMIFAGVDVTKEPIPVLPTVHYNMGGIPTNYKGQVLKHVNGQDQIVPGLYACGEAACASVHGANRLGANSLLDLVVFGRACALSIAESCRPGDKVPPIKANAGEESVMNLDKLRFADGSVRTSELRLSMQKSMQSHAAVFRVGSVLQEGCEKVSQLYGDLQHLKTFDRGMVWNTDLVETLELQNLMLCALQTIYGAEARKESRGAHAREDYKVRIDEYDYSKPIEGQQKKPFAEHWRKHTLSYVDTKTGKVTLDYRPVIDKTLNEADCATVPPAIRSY
T1 sequence (P21913 31-282): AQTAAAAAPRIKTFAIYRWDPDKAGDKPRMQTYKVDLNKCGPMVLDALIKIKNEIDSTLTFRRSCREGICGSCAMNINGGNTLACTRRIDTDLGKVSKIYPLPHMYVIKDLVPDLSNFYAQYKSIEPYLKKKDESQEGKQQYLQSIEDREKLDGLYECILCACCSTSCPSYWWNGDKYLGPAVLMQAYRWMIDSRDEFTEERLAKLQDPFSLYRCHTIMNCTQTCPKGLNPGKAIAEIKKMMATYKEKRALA
T1 sequence (Q641Z9 1-169): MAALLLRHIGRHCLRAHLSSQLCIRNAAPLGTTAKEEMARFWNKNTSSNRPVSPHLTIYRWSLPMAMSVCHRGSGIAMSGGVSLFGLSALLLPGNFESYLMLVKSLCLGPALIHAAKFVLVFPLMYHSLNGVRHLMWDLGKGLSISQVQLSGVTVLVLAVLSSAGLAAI
T1 sequence (Q6PCT8 57-159): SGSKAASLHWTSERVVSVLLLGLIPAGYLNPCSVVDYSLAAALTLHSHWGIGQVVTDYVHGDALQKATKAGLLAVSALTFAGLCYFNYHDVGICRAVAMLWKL
In short: (§1)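 Abs 340 nm (I/V) or 600 nm (II), 1-min reads × 6 min; 550 nm (III, IV), 10-s reads × 2 min. RCC I = rotenone-free minus rotenone rate. DMSO control = 1.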

RCC III = RCC III activity in submitochondrial particles; format: biochemical, rat; design: key to RCC III at 100XCmax: activity relative to DMSO-treated controls (control set as 1 = 100%); settings: 100XCmax
In short: as §1

RCC IV = RCC IV activity in submitochondrial particles; format: biochemical, rat; design: key to RCC IV at 50XCmax / RCC IV at 100XCmax: activity relative to DMSO-treated controls (control set as 1 = 100%); settings: 50XCmax; DMSO treated samples set as 1; in %
In short: as §1

RCC V = RCC V activity in submitochondrial particles; format: biochemical, rat; settings: DMSO treated samples set as 1; for RCC V at 5XCmax: key: 0 indicates that the drug had no effects (negative)
In short: as §1

[2] = tested on: isolated rat liver mitochondria; assay: Mitochondrial inner membrane potential (MMP), Rhodamine 123; format: biochemical
From the text: Fig. 3 KI effects on mitochondrial inner membrane potential (MMP). […] In a, c, data are means and standard derivations from three separate experiments. *p < 0.05 as compared to DMSO-treated samples at the end of experiments. In b, data are means of two independent experiments

[3] = tested on: isolated rat liver mitochondria; assay: Mitochondrial swelling (absorbance at 535 nm); format: biochemical; for Swelling 5XCmax: key: 0 indicates that the drug had no effects (negative)
[4] = cited from earlier work
[5] = tested on: isolated rat liver mitochondria; assay: Mitochondrial ROS production (CM-H2DCFDA)
[6] = 1XCmax, DMSO treated samples set as 1
[7] = 2.5XCmax, DMSO treated samples set as 1
[8] = 5XCmax, DMSO treated samples set as 1
[9] = 10XCmax, DMSO treated samples set as 1
[10] = 20XCmax, DMSO treated samples set as 1
[11] = 30XCmax, DMSO treated samples set as 1
[12] = 50XCmax, DMSO treated samples set as 1
[13] = 100XCmax, DMSO treated samples set as 1
[14] = 1XCmax, difference in signal between KI and DMSO treated samples at the end of experiments
[15] = 2.5XCmax, difference in signal between KI and DMSO treated samples at the end of experiments
[16] = 5XCmax, difference in signal between KI and DMSO treated samples at the end of experiments
[17] = 10XCmax, difference in signal between KI and DMSO treated samples at the end of experiments
[18] = 20XCmax, difference in signal between KI and DMSO treated samples at the end of experiments
[19] = 30XCmax, difference in signal between KI and DMSO treated samples at the end of experiments
[20] = 50XCmax, difference in signal between KI and DMSO treated samples at the end of experiments
[21] = 100XCmax, difference in signal between KI and DMSO treated samples at the end of experiments

For `CC(C)(C)c1nc(-c2cccc(NS(=O)(=O)c3c(F)cccc3F)c2F)c(-c2ccnc(N)n2)s1` [Dabrafenib], the “State 3 respiration driven by glutamate/malate at 1XCmax” value [1, 6] was 0, the “State 3 respiration driven by succinate at 1XCmax” value [1, 6] was 0 and the “State 4 respiration driven by glutamate/malate at 1XCmax” value [1, 6] was 0. The “State 4 respiration driven by succinate at 1XCmax” value [1, 6] was 0, the “State 3 respiration driven by glutamate/malate at 2.5XCmax” value [1, 7] was 0 and the “State 3 respiration driven by succinate at 2.5XCmax” value [1, 7] was 0. The “State 4 respiration driven by glutamate/malate at 2.5XCmax” value [1, 7] was 0, the “State 4 respiration driven by succinate at 2.5XCmax” value [1, 7] was 0 and the “State 3 respiration driven by glutamate/malate at 5XCmax” value [1, 8] was 0. The “State 3 respiration driven by succinate at 5XCmax” value [1, 8] was 0, the “State 4 respiration driven by glutamate/malate at 5XCmax” value [1, 8] was 0 and the “State 4 respiration driven by succinate at 5XCmax” value [1, 8] was 0. The “Glutamate/malate driven respiration State 3” value ([1]; 10-fold Cmax) was 0.94 ± 0.04, the “Glutamate/malate driven respiration State 4” value ([1]; 10-fold Cmax) was 1.35 ± 0.19 and the “Succinate-driven respiration State 3” value ([1]; 10-fold Cmax) was 0.97 ± 0.07. For the same compound, the “Succinate-driven respiration State 4” value ([1]; 10-fold Cmax) was 1.38 ± 0.13, the “State 3 respiration driven by glutamate/malate at 10XCmax” value [1, 9] was 0 and the “State 3 respiration driven by succinate at 10XCmax” value [1, 9] was 0. For the same compound, the “State 4 respiration driven by glutamate/malate at 10XCmax” value [1, 9] was 1.35±0.19, the “State 4 respiration driven by succinate at 10XCmax” value [1, 9] was 1.38±0.13 and the “Glutamate/malate driven respiration State 3” value ([1]; 20-fold Cmax) was 0.90 ± 0.05. The “Glutamate/malate driven respiration State 4” value ([1]; 20-fold Cmax) was 1.59 ± 0.05, the “Succinate-driven respiration State 3” value ([1]; 20-fold Cmax) was 0.65 ± 0.01 and the “Succinate-driven respiration State 4” value ([1]; 20-fold Cmax) was 1.31 ± 0.02. The “State 3 respiration driven by glutamate/malate at 20XCmax” value [1, 10] was 0, the “State 3 respiration driven by succinate at 20XCmax” value [1, 10] was 0.65±0.01 and the “State 4 respiration driven by glutamate/malate at 20XCmax” value [1, 10] was 1.59±0.05. For the same compound, the “State 4 respiration driven by succinate at 20XCmax” value [1, 10] was 1.31±0.02, the “Glutamate/malate driven respiration State 3” value ([1]; 30-fold Cmax) was 0.71 ± 0.03 and the “Glutamate/malate driven respiration State 4” value ([1]; 30-fold Cmax) was 2.22 ± 0.24. For the same compound, the “Succinate-driven respiration State 3” value ([1]; 30-fold Cmax) was 0.59 ± 0.07, the “Succinate-driven respiration State 4” value ([1]; 30-fold Cmax) was 1.52 ± 0.12 and the “State 3 respiration driven by glutamate/malate at 30XCmax” value [1, 11] was 0.71±0.03. The “State 3 respiration driven by succinate at 30XCmax” value [1, 11] was 0.59±0.07, the “State 4 respiration driven by glutamate/malate at 30XCmax” value [1, 11] was 2.22±0.24 and the “State 4 respiration driven by succinate at 30XCmax” value [1, 11] was 1.52±0.12. For the same compound, the “Glutamate/malate driven respiration State 3” value ([1]; 50-fold Cmax) was 0.56 ± 0.05, the “Glutamate/malate driven respiration State 4” value ([1]; 50-fold Cmax) was 2.42 ± 0.21 and the “Succinate-driven respiration State 3” value ([1]; 50-fold Cmax) was 0.44 ± 0.10. For the same compound, the “Succinate-driven respiration State 4” value ([1]; 50-fold Cmax) was 1.69 ± 0.30, the “State 3 respiration driven by glutamate/malate at 50XCmax” value [1, 12] was 0.56±0.05 and the “State 3 respiration driven by succinate at 50XCmax” value [1, 12] was 0.44±0.10. For the same compound, the “State 4 respiration driven by glutamate/malate at 50XCmax” value [1, 12] was 2.42±0.21, the “State 4 respiration driven by succinate at 50XCmax” value [1, 12] was 1.69±0.30 and the “Glutamate/malate driven respiration State 3” value ([1]; 100-fold Cmax) was 0.41 ± 0.05. For the same compound, the “Glutamate/malate driven respiration State 4” value ([1]; 100-fold Cmax) was 2.49 ± 0.32, the “Succinate-driven respiration State 3” value ([1]; 100-fold Cmax) was 0.28 ± 0.01 and the “Succinate-driven respiration State 4” value ([1]; 100-fold Cmax) was 1.03 ± 0.09. For the same compound, the “State 3 respiration driven by glutamate/malate at 100XCmax” value [1, 13] was 0.41±0.05, the “State 3 respiration driven by succinate at 100XCmax” value [1, 13] was 0.28±0.01 and the “State 4 respiration driven by glutamate/malate at 100XCmax” value [1, 13] was 2.49±0.32. The “State 4 respiration driven by succinate at 100XCmax” value [1, 13] was 0, the “effect on state 4 respiration” value ([1]; highest tested concentrations) was “significant increases” and the “lowest concentration significantly affecting mitochondrial oxygen consumption” value ([1]; tested at 1 to 100-fold Cmax) was “tenfold”. For the same compound, the “RCC I at 10XCmax” value (RCC I) was 0, the “RCC II at 1.0XCmax” value (RCC II; 1.0XCmax) was 0 and the “RCC II at 2.5XCmax” value (RCC II; 2.5XCmax) was 0. For the same compound, the “RCC II at 5XCmax” value (RCC II; 5XCmax) was 0, the “RCC II at 10XCmax” value (RCC II; 10XCmax) was 0 and the “RCC II at 20XCmax” value (RCC II; 20XCmax) was 0. For the same compound, the “RCC II at 30XCmax” value (RCC II; 30XCmax) was 0, the “RCC II at 50XCmax” value (RCC II; 50XCmax) was 0 and the “RCC II at 100XCmax” value (RCC II; 100XCmax) was 0. For the same compound, the “RCC III at 100XCmax” value (RCC III) was 0, the “RCC IV at 50XCmax” value (RCC IV) was 0 and the “RCC V at 5XCmax” value (RCC V; 5XCmax) was 0. For the same compound, the “RCC V at 50XCmax” value (RCC V; 50XCmax) was 0, the “lowest concentration decreasing MMP” value [2] was 20 fold Cmax and the “MMP measured by Rhodamine 123 at 1XCmax” value [2, 14] was 0. The “MMP measured by Rhodamine 123 at 2.5XCmax” value [2, 15] was 0, the “MMP measured by Rhodamine 123 at 5XCmax” value [2, 16] was 0 and the “MMP measured by Rhodamine 123 at 10XCmax” value [2, 17] was 0. The “MMP measured by Rhodamine 123 at 20XCmax” value [2, 18] was 660±95*, the “MMP measured by Rhodamine 123 at 30XCmax” value [2, 19] was 773±60* and the “MMP measured by Rhodamine 123 at 50XCmax” value [2, 20] was 953±54*. For the same compound, the “MMP measured by Rhodamine 123 at 100XCmax” value [2, 21] was 926±89*, the “effect on MMP” value ([2]; up to 100-fold Cmax or highest testable concentration) was “decrease in MMP” and the “lowest concentration causing mitochondrial swelling” value [3] was “tenfold”. For the same compound, the “Swelling 1XCmax” value [3, 14] was 0, the “Swelling 2.5XCmax” value [3, 15] was 0 and the “Swelling 5XCmax” value [3, 16] was 0. The “Swelling 10XCmax” value [3, 17] was 0.20±0.02, the “Swelling 20XCmax” value [3, 18] was 0.48±0.05 and the “Swelling 30XCmax” value [3, 19] was 0.46±0.05. For the same compound, the “Swelling 50XCmax” value [3, 20] was 0.44±0.04, the “Swelling 100XCmax” value [3, 21] was 0.39±0.04 and the “effect on mitochondrial swelling” value ([3]; up to 100-fold Cmax or highest testable concentration, 25 µM calcium chloride) was “significant mitochondrial swelling”. The “DILI potential (based on labeling)” value ([4]; 1 DILI positive, 0 negative according to labeling, ref product labeling) was 0, the “DILI potential (based on labeling)” value ([4]; ref FDA product labeling) was 0 and the “lowest concentration triggering ROS overproduction” value [5] was 50 fold Cmax. For the same compound, the “ROS measured by CM-H2DCFDA at 1XCmax” value [5, 6] was 0, the “ROS measured by CM-H2DCFDA at 2.5XCmax” value [5, 7] was 0 and the “ROS measured by CM-H2DCFDA at 5XCmax” value [5, 8] was 0. For the same compound, the “ROS measured by CM-H2DCFDA at 10XCmax” value [5, 9] was 0, the “ROS measured by CM-H2DCFDA at 20XCmax” value [5, 10] was 0 and the “ROS measured by CM-H2DCFDA at 30XCmax” value [5, 11] was 0. For the same compound, the “ROS measured by CM-H2DCFDA at 50XCmax” value [5, 12] was 2.23±0.44, the “ROS measured by CM-H2DCFDA at 100XCmax” value [5, 13] was 1.80±0.16 and the “effect on ROS production” value ([5]; highest tested concentrations) was “significantly ROS production”.
